Earlier results in paper PMC8067797, “An In Vivo Predictive Dissolution Methodology (iPD Methodology) with a BCS Class IIb Drug Can Predict the In Vivo Bioequivalence Results: Etoricoxib Products” (Pharmaceutics, 2021).
In brackets after ≈: the same amount, converted by molar mass. Several values for one entry are separate records, joined by “and”; a condition that tells them apart may be missing. Equal entries are not always repeated. Where two headings read alike, the source gives them in different places.

Columns and labels:
[1] = set-up: method as in Schwartz et al. [23]; details: ref Schwartz et al. [23]
[2] = set-up: method as in Okumu et al. [7]; details: ref Okumu et al. [7]
[3] = test system: Caco-2; details: used for plasma simulations; ref [6]
[4] = not given; remark: listed apart in the source
[5] = not given; remark: listed apart in the source
[6] = curve fitting of literature data, ref [6]

In the case of `Cc1ccc(-c2ncc(Cl)cc2-c2ccc(S(C)(=O)=O)cc2)cn1` [ETO, Etoricoxib], the “Cs, solubility” value (pH 4.5, ref [7]) is listed as 440 µg/mL, the “solubility in FaSSIF or simulated intestinal fluids (SIF phosphate buffer)” value (pH 6.8, ref [7]) is listed as 140 µg/mL (≈ 0.39 mM) and the “solubility in the stomach” value (ref Mitra el al. [6]) is listed as 25000 µg/mL (≈ 69.7 mM). The “reduction of plasma Cmax” value ([1]; with calcium carbonate) was 23%, the “reduction of plasma Cmax” value ([1]; with magnesium and aluminum hydroxide) was 15% and the “precipitation in transfer system” value [2] was “did not observe precipitation”. The “supersaturation ratio (dissolved concentration / equilibrium solubility)” value ([2]; transfer system) was “below 3”, the “Effective Permeability Small Intestine—Peff” value [3] was 475 ×10⁻⁶ cm/s and the “Central compartment volume—Vc” value ([4]; average value, curve fitting of literature data, ref [6],[9],[21]) was 27.40 L. For the same compound, the “Distribution rate constant from central to peripheral compartment—k12” value [4, 6] was 0.6180 h⁻¹, the “Distribution rate constant from peripheral to central compartment—k21” value [4, 6] was 0.2820 h⁻¹ and the “Elimination rate constant from central compartment—ke” value [4, 6] was 0.0899 h⁻¹. For the same compound, the Pharmacokinetics dose linearity ([4]; dose range 30–240 mg, ref [8]) was “linear”, the oral bioavailability ([4]; oral dosing, ref [8]) was “up to 100%” and the Oral absolute bioavailability ([4]; ref [9]) was 83%. For the same compound, the Oral absolute bioavailability ([4]; ref [10]) was “practically complete”, the BCS classification ([5]; low solubility pH 4–7, high permeability) was “BCS class II” and the logP ([5]; ref [14]) was 2.79 and 2.794. The pKa ([5]; weak base, ref [6],[7]) was 4.96.
